# Measured values: patent publication US20200017496A1 (priority 2017, published 2020)
# Like-named read-outs stand apart in the source and are kept apart here.
# What was measured:
# Experiment in all cases: MIC of compounds alone and combined with antibacterials, broth microdilution (CLSI)
# Format in all cases: cell-based
# [1] = test system: Citrobacter freundii (CFR) isolates; conditions: for MIC: Citrobacter freundii
# Summary of the method: (§1)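 Log-phase bacteria at a final 5·10^5 CFU/mL in cation-adjusted Mueller-Hinton broth were incubated 16-20 h at 35° C in ambient air with compound alone or with an antibacterial. MIC was the lowest concentration preventing visible growth; combination MIC of the antibacterial was read at each compound concentration.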
# [2] = test system: Klebsiella oxytoca (KOX) isolates; conditions: for MIC ATB in combination: AF1 @ 4 μg/mL; for MIC: Klebsiella oxytoca, ATB alone
# Summary of the method: as §1
# [3] = test system: Providencia stuartii (PST) isolates; conditions: for MIC ATB in combination: AF1 @ 4 μg/mL; for MIC: Providencia stuartii, ATB alone, read-out: MIC
# Summary of the method: as §1
# [4] = test system: Morganella morganii (MMO) isolates; conditions: for MIC ATB in combination: AF1 @ 4 μg/mL; for MIC: Morganella morganii, ATB alone
# Summary of the method: as §1
# [5] = test system: Serratia marcescens (SMA) isolates; conditions: for MIC ATB in combination: AF1 @ 4 μg/mL; for MIC: Serratia marcescens
# Summary of the method: as §1
compound,measurement,setting,value
"CO/N=C(\C(=O)N[C@@H]1C(=O)N2C(C(=O)O)=C(COC(N)=O)CS[C@H]12)c1ccco1 [FUR, Cefuroxime]",MIC ATB in combination,"[1]; CFR UFR10, AF1 @ 4 μg/mL",8 µg/mL
same,MIC ATB in combination,"[1]; CFR UFR11, AF1 @ 4 μg/mL",>128 µg/mL
same,MIC ATB in combination,"[1]; CFR UFR83, AF1 @ 4 μg/mL",>128 µg/mL
same,MIC ATB in combination,"[1]; CFR UFR146, AF1 @ 4 μg/mL",16 µg/mL
same,MIC ATB in combination,"[1]; CFR UFR248, AF1 @ 4 μg/mL",8 µg/mL
same,MIC ATB in combination,"[1]; CFR UFR249, AF1 @ 4 μg/mL",8 µg/mL
same,MIC ATB in combination,"[1]; CFR UFR250, AF1 @ 4 μg/mL",8 µg/mL
same,MIC,[1],> 256 µg/mL
same,MIC,"[1]; ATB alone, strain CFR UFR253 (TEM-1, SHV-12, OXA-48), read-out: MIC",32 µg/mL
same,MIC,"[1]; ATB alone, strain CFR UFR254 (VEB-1b, OXA-48, qnrA), read-out: MIC",32 µg/mL
same,MIC,"[1]; strain CFR UFR10 (OXA-48), ATB alone, read-out: MIC",> 256 µg/mL
same,MIC,"[1]; strain CFR UFR11 (TEM-1, OXA-1, OXA-48), ATB alone, read-out: MIC",> 256 µg/mL
same,MIC,"[1]; strain CFR UFR83 (TEM-3, AmpC), ATB alone, read-out: MIC",> 256 µg/mL
same,MIC,"[1]; strain CFR UFR248 (CTX-M-15), ATB alone, read-out: MIC",> 256 µg/mL
same,MIC,"[1]; strain CFR UFR249 (TEM-1, CTX-M-15), ATB alone, read-out: MIC",> 256 µg/mL
same,MIC,"[1]; strain CFR UFR250 (TEM-1, SHV-28, CTX-M-15), ATB alone, read-out: MIC",> 256 µg/mL
same,MIC ATB in combination,"[1]; strain CFR UFR253, antibacterial combined with AF1 @ 4 μg/mL",4 µg/mL
same,MIC ATB in combination,"[1]; strain CFR UFR254, antibacterial combined with AF1 @ 4 μg/mL",2 µg/mL
same,MIC ATB in combination,[2]; KOX UFR21,16 µg/mL
same,MIC ATB in combination,[2]; KOX UFR173,4 µg/mL
same,MIC ATB in combination,[2]; KOX UFR223,2 µg/mL
same,MIC ATB in combination,[2]; KOX UFR224,2 µg/mL
same,MIC,"[2]; strain KOX UFR21 (TEM-1, CTX-M-15, OXA-48)",> 256 µg/mL
same,MIC,"[2]; strain KOX UFR173 (OXY2-2), read-out: MIC",> 256 µg/mL
same,MIC,"[2]; strain KOX UFR223 (SHV-11, OXA-48), read-out: MIC",8 µg/mL
same,MIC,"[2]; strain KOX UFR224 (CTX-M-15, OXA-48)",> 256 µg/mL
same,MIC ATB in combination,[3]; PST UFR94,8 µg/mL
same,MIC ATB in combination,[3]; PST UFR95,32 µg/mL
same,MIC ATB in combination,[3]; PST UFR235,8 µg/mL
same,MIC,[3]; strain PST UFR94 (CTX-M-14),> 256 µg/mL
same,MIC,[3]; strain PST UFR95 (TEM-24),128 µg/mL
same,MIC,[3]; strain PST UFR235 (VEB-1),256 µg/mL
same,MIC ATB in combination,[4]; MMO 200321,128 µg/mL
same,MIC ATB in combination,[4]; MMO UFR144,32 µg/mL
same,MIC ATB in combination,[4]; MMO UFR240,16 µg/mL
same,MIC ATB in combination,[4]; MMO UFR241,32 µg/mL
same,MIC ATB in combination,[4]; MMO UFR242,32 µg/mL
same,MIC ATB in combination,[4]; MMO UFR243,32 µg/mL
same,MIC ATB in combination,[4]; MMO UFR244,16 µg/mL
same,MIC ATB in combination,[4]; MMO UFR245,32 µg/mL
same,MIC ATB in combination,[4]; MMO UFR246,64 µg/mL
same,MIC ATB in combination,[4]; MMO UFR247,16 µg/mL
same,MIC,"[4]; strain MMO 200321 (TEM-1, CTX-M-15, OXA-1)",> 256 µg/mL
same,MIC,"[4]; strain MMO UFR144 (TEM-1, CTX-M-15)",> 256 µg/mL
same,MIC,[4]; strain MMO UFR240 (CTX-M-9),> 256 µg/mL
same,MIC,"[4]; strain MMO UFR241 (TEM-1, CTX-M-15)",> 256 µg/mL
same,MIC,[4]; strain MMO UFR242 (TEM-52),> 256 µg/mL
same,MIC,"[4]; strain MMO UFR243 (DHA-1), read-out: MIC",128 µg/mL
same,MIC,"[4]; strain MMO UFR244 (DHA-1), read-out: MIC",64 µg/mL
same,MIC,"[4]; strain MMO UFR245 (DHA-1), read-out: MIC",128 µg/mL
same,MIC,"[4]; strain MMO UFR246 (DHA-1), read-out: MIC",128 µg/mL
same,MIC,"[4]; strain MMO UFR247 (DHA-1), read-out: MIC",> 256 µg/mL
same,MIC ATB in combination,[5]; SMA UFR30,64 µg/mL
same,MIC ATB in combination,[5]; SMA UFR134,64 µg/mL
same,MIC ATB in combination,[5]; SMA UFR135,>128 µg/mL
same,MIC ATB in combination,[5]; SMA UFR136,>128 µg/mL
same,MIC ATB in combination,[5]; SMA UFR137,32 µg/mL
same,MIC ATB in combination,[5]; SMA UFR138,64 µg/mL
same,MIC ATB in combination,[5]; SMA UFR139,64 µg/mL
same,MIC ATB in combination,[5]; SMA UFR141,128 µg/mL
same,MIC ATB in combination,[5]; SMA UFR142,64 µg/mL
same,MIC ATB in combination,[5]; SMA UFR143,32 µg/mL
same,MIC ATB in combination,[5]; SMA UFR239,>128 µg/mL
same,MIC,[5],> 256 µg/mL
same,MIC,"[5]; ATB alone, strain SMA UFR238 (OXA-48), read-out: MIC",> 256 µg/mL
same,MIC,"[5]; strain SMA UFR30 (OXA-405), ATB alone, read-out: MIC",> 256 µg/mL
same,MIC,"[5]; strain SMA UFR134 (TEM-1, BES-1), ATB alone, read-out: MIC",> 256 µg/mL
